In general, IC50 refers to the concentration that inhibits the measured activity by half. By Ki is commonly meant a measure of affinity in units of concentration, obtained from inhibition or displacement.

Here are results for 10 compounds from patent publication US9873709B2 (priority 2013, dated 2018).

Read-outs that look alike come from different tables or passages of the source.

Assay [1] concerns JAK1-dependent STAT6 phosphorylation downstream of IL-13 stimulation in BEAS-2B human bronchial epithelial cells. Kind of assay: cells. As to conditions: read-out: IL13-pSTAT6 BEASB2B IC50.
Experimental: Inhibitor potency (EC50) was determined in cell-based assays designed to measure JAK1 dependent STAT phosphorylation.
Prior to use in the assays, TF-1 cells were starved of GM-CSF overnight in OptiMEM medium (Life Technologies, Grand Island, N.Y.) supplemented with 0.5% charcoal/dextran stripped fetal bovine serum (FBS), 0.1 mM non-essential amino acids (NEAA), and 1 mM sodium pyruvate. The assays were run in 384-well plates in serum-free OptiMEM medium using 300,000 cells per well. In a second assay approach, BEAS-2B human bronchial epithelial cells obtained from ATCC were plated at 100,000 cells per well of a 96-well plate one day prior to the experiment. The BEAS-2B assay was run in complete growth medium (bronchial epithelial basal medium plus bulletkit; Lonza; Basel, Switzerland).
Test compounds were serially diluted 1:2 in DMSO and then diluted 1:50 in medium just before use. Diluted compounds were added to the cells, for a final DMSO concentration of 0.2%, and incubated for 30 min (for the TF-1 assay) or 1 hr (for the BEAS-2B assay) at 37° C. Then, cells were stimulated with human recombinant cytokine at their respective EC90 concentrations, as previously determined for each individual lot. […] The resultant samples were frozen in the plates at −80° C. Compound mediated inhibition of STAT6 phosphorylation was measured in the cell lysates using MesoScale Discovery (MSD) technology (Gaithersburg, Md.).
The target of assay [2] is isolated recombinant JAK2 kinase domain (Homo sapiens (Human), UniProt O60674). As to conditions: read-out: JAK2 Ki.
Assay [3] concerns JAK1-dependent STAT6 phosphorylation downstream of IL-13 stimulation in TF-1 human erythroleukemia cells. Kind of assay: cells. As to conditions: TF-1, read-out: IL-13-pSTAT6 IC50.
Where [4] appears, read: isolated recombinant JAK2 kinase domain, 25 μM ATP.

Chain of isolated recombinant JAK2 kinase domain (O60674 849-1124): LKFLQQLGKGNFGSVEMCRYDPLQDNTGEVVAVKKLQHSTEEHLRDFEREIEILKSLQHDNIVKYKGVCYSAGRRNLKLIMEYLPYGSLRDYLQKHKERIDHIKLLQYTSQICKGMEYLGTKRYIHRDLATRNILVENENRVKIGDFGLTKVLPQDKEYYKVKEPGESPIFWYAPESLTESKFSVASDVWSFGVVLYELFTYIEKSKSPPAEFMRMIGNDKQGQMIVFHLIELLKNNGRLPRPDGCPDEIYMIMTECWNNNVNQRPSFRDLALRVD

Turning to `CN1CCC(N(C)C(=O)c2ccc(Nc3nc4c(N5CCC(O)(c6ccccc6)CC5)cccn4n3)cc2)CC1` [Example 1-43, 4-[[8-(4-hydroxy-4-phenyl-1-piperidyl)-[1,2,4]triazolo[1,5-a]pyridin-2-yl]amino]-N-methyl-N-(1-methyl-4-piperidyl)benzamide], the IC50 in assay [1] stood at 968 nM. Moreover, the inhibition constant (Ki) in assay [2] (setting [4]) is 7.84 nM.
In the case of `CO/N=C/C1(c2ccc(Cl)cc2)CCN(c2cccn3nc(Nc4ccc(C(=O)N(C)C5CCN(C)CC5)cc4)nc23)CC1` [Example 1-250], the concentration for half-maximal inhibition (IC50) in assay [1] is 732 nM. The inhibitory constant (Ki) in assay [2] (setting [4]) was 1.29 nM.
In the case of `CSc1ccc(C2(CO)CCN(c3cccn4nc(Nc5ccc(C(=O)N(C)C6CCN(C)CC6)cc5)nc34)CC2)cc1` [Example 1-251, 4-([8-[4-(hydroxymethyl)-4-[4-(methylsulfanyl)phenyl]piperidin-1-yl]-[1,2,4]triazolo[1,5-a]pyridin-2-yl]amino)-N-methyl-N-(1-methylpiperidin-4-yl)benzamide], in assay [1], the 50% inhibitory concentration (IC50) amounted to 56.6 nM. Further, the inhibition constant Ki in assay [2] amounted to 0.41 nM.
`CC1CN(CCNC(=O)c2ccc(Nc3nc4c(C5=CCN(C(=O)CCC(F)(F)F)CC5)cccn4n3)cc2)CC(C)O1` (centres unmarked) [Example 2-268, N-[2-(2,6-dimethylmorpholin-4-yl)ethyl]-4-[[8-[1-(4,4,4-trifluorobutanoyl)-3,6-dihydro-2H-pyridin-4-yl]-[1,2,4]triazolo[1,5-a]pyridin-2-yl]amino]benzamide]: the IC50 in assay [1] was determined as 26.6 nM; in assay [3], 3 nM.
The corresponding values for `O=C(NCCCN1CCOCC1)c1ccc(Nc2nc3c(C4=CCN(C(=O)CCC(F)(F)F)CC4)cccn3n2)cc1` [Example 2-271, N-(3-morpholinopropyl)-4-[[8-[1-(4,4,4-trifluorobutanoyl)-3,6-dihydro-2H-pyridin-4-yl]-[1,2,4]triazolo[1,5-a]pyridin-2-yl]amino]benzamide] are 15.9 nM and 5.3 nM.
On to `O=C(CCC(F)(F)F)N1CC=C(c2cccn3nc(Nc4ccc(C(=O)N(Cc5ccccn5)C5CC5)cc4)nc23)CC1` [Example 2-272, N-cyclopropyl-N-(2-pyridylmethyl)-4-[[8-[1-(4,4,4-trifluorobutanoyl)-3,6-dihydro-2H-pyridin-4-yl]-[1,2,4]triazolo[1,5-a]pyridin-2-yl]amino]benzamide], for which the IC50 turned out to be 106 nM in assay [1] and 3.9 nM in assay [3].
For the compound `CN1CCC(N(C)C(=O)c2ccc(Nc3nc4c(C5=CCN(C(=O)CCC(F)(F)F)CC5)cccn4n3)cc2)CC1` [Example 2-288, N-methyl-N-(1-methyl-4-piperidyl)-4-[[8-[1-(4,4,4-trifluorobutanoyl)-3,6-dihydro-2H-pyridin-4-yl]-[1,2,4]triazolo[1,5-a]pyridin-2-yl]amino]benzamide], the half-inhibitory concentration (IC50) in assay [1] was found to be 77.7 nM; in assay [3], 12.7 nM.
As to `CC(CN1CCCCC1)NC(=O)c1ccc(Nc2nc3c(C4=CCN(C(=O)CCC(F)(F)F)CC4)cccn3n2)cc1` (centres unmarked) [Example 2-334, N-[1-methyl-2-(1-piperidyl)ethyl]-4-[[8-[1-(4,4,4-trifluorobutanoyl)-3,6-dihydro-2H-pyridin-4-yl]-[1,2,4]triazolo[1,5-a]pyridin-2-yl]amino]benzamide], the IC50 was found to be 30.7 nM in assay [1] and 4.3 nM in assay [3].
`O=C(CCC(F)(F)F)N1CC=C(c2cccn3nc(Nc4ccc(C(=O)N5CCC(c6ccncc6)C5)cc4)nc23)CC1` (centres unmarked) [Example 2-338, 4,4,4-trifluoro-1-[4-[2-[4-[3-(4-pyridyl)pyrrolidine-1-carbonyl]anilino]-[1,2,4]triazolo[1,5-a]pyridin-8-yl]-3,6-dihydro-2H-pyridin-1-yl]butan-1-one]: the half-inhibitory concentration (IC50) in assay [1] was found to be 23.4 nM; in assay [3] it was 3.3 nM.
With `O=C(NCCc1ccncc1)c1ccc(Nc2nc3c(C4=CCN(C(=O)CCC(F)(F)F)CC4)cccn3n2)cc1` [Example 2-343, N-[2-(4-pyridyl)ethyl]-4-[[8-[1-(4,4,4-trifluorobutanoyl)-3,6-dihydro-2H-pyridin-4-yl]-[1,2,4]triazolo[1,5-a]pyridin-2-yl]amino]benzamide], the half-maximal inhibitory concentration (IC50) in assay [1] stood at 38.3 nM; in assay [3], 4.6 nM.
